According to patent US12577231B2, “Androgen receptor PROTACS” (GlaxoSmithKline Intellectual Property Development Limited, priority 2023, dated 2026):

Assays:
Androgen receptor F877L = target: T1, Androgen receptor F877L (Homo sapiens, UniProt P10275, F877L); test: Degradation of overexpressed Androgen Receptor in A549 cells (HiBiT), F877L; type: cell-based; details: A549 cells overexpressing AR F877L, cycloheximide, 24 hours
T1 construct: expressed in transfected cells; host or cells: A549, transduced, puromycin selected
T1 sequence (P10275 1-920 F877L): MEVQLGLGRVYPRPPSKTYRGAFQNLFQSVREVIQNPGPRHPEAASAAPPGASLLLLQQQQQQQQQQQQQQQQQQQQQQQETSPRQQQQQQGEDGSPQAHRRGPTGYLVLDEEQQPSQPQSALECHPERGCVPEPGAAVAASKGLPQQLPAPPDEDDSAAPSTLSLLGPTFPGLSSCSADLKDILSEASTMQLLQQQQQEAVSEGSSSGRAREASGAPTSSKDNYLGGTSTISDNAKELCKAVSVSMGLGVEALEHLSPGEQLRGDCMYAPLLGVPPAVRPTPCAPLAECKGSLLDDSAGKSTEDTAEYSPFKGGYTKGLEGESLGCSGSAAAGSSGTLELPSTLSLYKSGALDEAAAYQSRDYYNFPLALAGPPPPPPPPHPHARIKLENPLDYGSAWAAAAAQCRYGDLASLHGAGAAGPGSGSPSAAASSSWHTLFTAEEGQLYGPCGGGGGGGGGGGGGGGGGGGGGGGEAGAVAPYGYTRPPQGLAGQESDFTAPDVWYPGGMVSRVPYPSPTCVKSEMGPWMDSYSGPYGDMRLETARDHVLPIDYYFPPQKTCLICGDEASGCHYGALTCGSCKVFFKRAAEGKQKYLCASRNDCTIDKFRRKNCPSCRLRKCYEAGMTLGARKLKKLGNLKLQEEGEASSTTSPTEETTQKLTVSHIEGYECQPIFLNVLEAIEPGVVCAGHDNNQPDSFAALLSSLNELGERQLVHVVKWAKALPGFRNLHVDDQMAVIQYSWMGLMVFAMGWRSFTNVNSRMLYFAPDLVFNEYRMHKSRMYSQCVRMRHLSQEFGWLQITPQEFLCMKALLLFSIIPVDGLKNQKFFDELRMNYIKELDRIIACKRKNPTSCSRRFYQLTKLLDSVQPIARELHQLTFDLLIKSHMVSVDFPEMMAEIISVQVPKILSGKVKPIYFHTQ
Method: A549 cells were transduced to express wild type androgen receptor and Androgen receptor containing the following mutations (L702H, H875Y W742C W742L F877L, T878A and T878A/H875Y) with HiBiT tags. Transduced cells following puromycin selection were maintained in a humidified incubator (at 37° C. and 5% CO2 in the DMEM medium supplemented with 1% (v/v) Pen/Strep, 1% (v/v) Glutamax and 10% (v/v) FBS. A549 cells expressing each AR construct were detached from plate and counted. Cell suspensions at density 0.2 million per mL were prepared. Cell suspension was supplemented with 100 μg/mL of cycloheximide to block protein synthesis. Cells were preincubated with cycloheximide for 1 hr before seeding. Cells were seeded onto 384-well plate at density of 5,000 in 25 μL per well. A two fold serial dilution of test compounds, starting from 1 μM (row A) in 2-fold serial dilution series across the column using Tecan D300e dispenser. […]
Nano-Glo HiBiT Lytic reagent was prepared by adding LgBiT protein and Nano-Glo® substrate to lytic buffer pre-equilibrated at room temperature following manufacturer protocol (https://www.promega.co.uk/resources/protocols/technical-manuals/101/nanoglo-luciferase-assay-system-protocol). […] The plates were then centrifuged (100×G, 1 min) and incubated on shaker for 10 mins before taking readings on Pherastar Luminescence microplate reader. […]

[1] = system: Androgen Receptor in human prostate cancer cell lines; test: Androgen Receptor Degradation-Imaging Assay, all prostate cancer cell lines (FIG. 2); type: cell-based; details: 16 hours treatment
Method: Degradation of Androgen Receptor (AR) protein in human prostate cancer cell lines (MDA-PCa-2b (AR T878A/L702H), LNCaP (AR T878A), VCaP (AR wild type and amplified) 22RV1 (AR H875Y) and PC3 (AR negative control)) treated with AR PROTACs was quantified using immunofluorescence. Prostate cancer cells were plated (MDA-PCa-2b, and VCaP 16,000 cells/well; LNCaP and 22RV1 32,000 cells/well, and PC3 8,000 cells/well) in an optical bottom 96-well cell culture plate and allowed to attach overnight. The prostate cancer cell lines were treated for 16 hours with a 10-point 3-fold dilution series (dose range=0.02 nM to 333 nM). PC3 is included as an AR negative control and not treated with compound. […] Following washes with IF buffer, cells were incubated with fluorescent secondary antibody (Goat anti-rabbit Alexa 647; commercially available from Invitrogen) and Hoechst nuclear stain (commercially available from Themo Scientific) prior to quantification of nuclear AR levels via Opera Phenix high-content fluorescent imager using a 40× water objective. […]
The averaged nuclear Alexa 647 median fluorescence intensity (MFI) of PC3 cells is subtracted from the nuclear Alexa 647 MFI of PROTAC treated and DMSO control treated cells. % AR remaining is calculated for PROTAC treatments as a percent of the DMSO control (MFI PROTAC treated/MFI DMSO control treated)*100). […]

COc1cc(O[C@H]2C(C)(C)[C@H](NC(=O)c3ccc(N4CCC(CN5CCC(n6ncc7c(N8CCC(=O)NC8=O)nccc76)CC5)CC4)c(F)c3)C2(C)C)ccc1C#N [Example 20, N-((1r,3r)-3-(4-Cyano-3-methoxyphenoxy)-2,2,4,4-tetramethylcyclobutyl)-4-(4-((4-(4-(2,4-dioxotetrahydropyrimidin-1(2H)-yl)-1H-pyrazolo[4,3-c]pyridin-1-yl)piperidin-1-yl)methyl)piperidin-1-yl)-3-fluorobenzamide]
Summary pXC50 (Androgen receptor F877L): 8.84 | percentage of Androgen Receptor remaining versus concentration (FIG. 2) [1]: Good reductions
